Laboratory results taken from the Kinase Knowledgebase extract (Sharma et al. 2016).

target: EGFR (human) (UniProt P00533)
Sequence (P00533 whole entry, looked up): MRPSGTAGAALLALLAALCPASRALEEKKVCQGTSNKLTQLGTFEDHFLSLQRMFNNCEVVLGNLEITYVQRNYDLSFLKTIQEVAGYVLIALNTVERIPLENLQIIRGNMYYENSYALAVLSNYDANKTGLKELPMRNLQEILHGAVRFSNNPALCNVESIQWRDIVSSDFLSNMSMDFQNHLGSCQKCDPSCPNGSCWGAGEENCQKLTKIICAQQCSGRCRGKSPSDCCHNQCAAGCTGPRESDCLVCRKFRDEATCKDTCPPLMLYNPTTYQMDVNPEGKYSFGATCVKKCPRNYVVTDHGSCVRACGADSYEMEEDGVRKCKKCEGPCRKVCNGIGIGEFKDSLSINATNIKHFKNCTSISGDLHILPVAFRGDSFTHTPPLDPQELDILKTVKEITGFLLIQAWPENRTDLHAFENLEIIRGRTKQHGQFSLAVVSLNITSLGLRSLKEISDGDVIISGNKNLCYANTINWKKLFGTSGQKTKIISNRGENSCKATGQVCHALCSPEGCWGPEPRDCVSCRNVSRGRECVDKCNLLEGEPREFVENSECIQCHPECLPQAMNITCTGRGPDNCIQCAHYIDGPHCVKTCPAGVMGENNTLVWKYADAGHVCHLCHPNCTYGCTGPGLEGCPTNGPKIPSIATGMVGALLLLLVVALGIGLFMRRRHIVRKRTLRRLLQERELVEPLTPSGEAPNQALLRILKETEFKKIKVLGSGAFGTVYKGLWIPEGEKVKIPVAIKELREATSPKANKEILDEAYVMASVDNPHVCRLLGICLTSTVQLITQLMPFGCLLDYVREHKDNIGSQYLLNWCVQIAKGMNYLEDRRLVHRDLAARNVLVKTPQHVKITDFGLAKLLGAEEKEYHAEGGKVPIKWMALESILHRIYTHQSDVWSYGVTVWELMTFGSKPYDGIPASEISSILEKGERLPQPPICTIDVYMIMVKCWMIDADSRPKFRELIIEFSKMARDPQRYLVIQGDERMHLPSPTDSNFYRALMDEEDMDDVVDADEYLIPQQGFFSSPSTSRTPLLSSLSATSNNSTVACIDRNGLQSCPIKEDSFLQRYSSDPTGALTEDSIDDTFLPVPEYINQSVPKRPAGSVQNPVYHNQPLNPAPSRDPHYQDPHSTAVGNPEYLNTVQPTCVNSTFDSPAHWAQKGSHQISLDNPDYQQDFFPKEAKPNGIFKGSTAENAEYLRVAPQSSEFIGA

Question: How did the IC50 turn out when N#C/C(=C\c1cc(O)c(O)c(C#N)c1)C(=O)Nc1cccc(Cl)c1 was run?
Answer: 1000 nM

Question: How did the IC50 turn out when N#C/C(=C\c1cc(O)c(O)c(Br)c1)C(=O)Nc1cccc(Cl)c1 was run?
Answer: 490 nM

Question: With Cc1cc(/C=C(\C#N)C(=O)Nc2cccc(Cl)c2)cc(O)c1O as the molecule, how does the IC50 read?
Answer: 1300 nM

Question: For Cc1cccc(NC(=O)/C(C#N)=C/c2ccc(O)c(O)c2)c1, which IC50 is on record?
Answer: 2100 nM

Question: N#C/C(=C\c1cc(O)c(O)c(C(F)(F)F)c1)C(=O)Nc1cccc(Cl)c1 was tested. Which IC50 did it give?
Answer: 2300 nM

Question: Cc1cc(/C=C(\C#N)C(=O)Nc2cccc(Cl)c2)cc(C)c1O was tested. Which IC50 did it give?
Answer: 900 nM

Question: With COc1cc(/C=C(\C#N)C(=O)Nc2cccc(Cl)c2)cc(S(C)(=O)=O)c1O as the molecule, how does the IC50 read?
Answer: 1400 nM

Question: With COc1cc(/C=C(\C#N)C(=O)Nc2ccccc2)cc(Br)c1O as the molecule, how does the IC50 read?
Answer: 1800 nM

Question: With N#C/C(=C\c1cc(O)c(O)c(Cl)c1)C(=O)Nc1ccccc1 as the molecule, how does the IC50 read?
Answer: 1200 nM

Question: With N#C/C(=C\c1cc(O)c(O)c(Br)c1Br)C(=O)Nc1cccc(Cl)c1 as the molecule, how does the IC50 read?
Answer: 280 nM

Question: Which IC50 does the source give for N#C/C(=C\c1cc(O)c(O)c(F)c1)C(=O)Nc1cccc(Cl)c1 here?
Answer: 600 nM

Question: COc1cc(/C=C(\C#N)C(=O)Nc2cccc(Cl)c2)cc(F)c1O was tested. Which IC50 did it give?
Answer: 1600 nM

Question: N#C/C(=C\c1cc(Br)c(O)c(Br)c1)C(=O)Nc1cccc(Cl)c1 was tested. Which IC50 did it give?
Answer: 1100 nM

Question: Which IC50 does the source give for N#C/C(=C\c1cc(O)c(O)c(Cl)c1)C(=O)Nc1cccc(Cl)c1 here?
Answer: 680 nM

Question: Which IC50 does the source give for COc1cc(/C=C(\C#N)C(=O)Nc2cccc(Cl)c2)cc(C)c1O here?
Answer: 420 nM

Question: With COc1cc(/C=C(\C#N)C(=O)Nc2ccccc2)cc(Cl)c1O as the molecule, how does the IC50 read?
Answer: 1600 nM

Question: With COc1cc(/C=C(\C#N)C(=O)Nc2cccc(Cl)c2)cc([N+](=O)[O-])c1O as the molecule, how does the IC50 read?
Answer: 1800 nM

Question: For COc1cc(/C=C(\C#N)C(=O)Nc2cccc(Cl)c2)cc(Br)c1O, which IC50 is on record?
Answer: 1400 nM

Question: For N#C/C(C(=O)Nc1ccccc1)=C(\O)c1ccc(O)c(O)c1, which IC50 is on record?
Answer: 960 nM

Question: Which IC50 does the source give for N#C/C(=C\c1cc(O)c(O)cc1[N+](=O)[O-])C(=O)Nc1cccc(Cl)c1 here?
Answer: 280 nM

Question: For CCOc1cc(/C=C(\C#N)C(N)=O)cc(CSc2ccccc2)c1O, which IC50 is on record?
Answer: 2600 nM

Question: N#C/C(=C\c1ccc(O)c(O)c1)C(=O)Nc1cccc(Cl)c1 was tested. Which IC50 did it give?
Answer: 1400 nM

Question: For COc1cc(/C=C(\C#N)C(=O)Nc2cccc(Cl)c2)ccc1O, which IC50 is on record?
Answer: 2100 nM

Question: For COc1cc(/C=C(\C#N)C(=O)Nc2cccc(Cl)c2)cc(Cl)c1O, which IC50 is on record?
Answer: 680 nM
